According to the NIST ThermoML archive (doi:10.1016/j.jct.2012.03.002):

Tests used:
[1] = cn = amount concentration of the nth substance listed, in mol/dm3; conditions: 298.15 K, 101 kPa, Liquid, Alternating current cell with electrodes
[2] = refractive index (Na D-line) (dimensionless); cn = amount concentration of the nth substance listed, in mol/dm3; conditions: 298.15 K, 101 kPa, Liquid, Standard Abbe refractometry
[3] = wn = mass fraction of the nth substance listed; conditions: 298.15 K, 101 kPa, Liquid; for viscosity: Capillary tube (Ostwald / Ubbelohde) method; for mass density: Vibrating tube method
[4] = refractive index (Na D-line) (dimensionless); wn = mass fraction of the nth substance listed; conditions: 298.15 K, 101 kPa, Liquid, Standard Abbe refractometry
[5] = 298.15 K, 101 kPa, Liquid; for viscosity: Capillary tube (Ostwald / Ubbelohde) method; for mass density: Vibrating tube method
[6] = refractive index (Na D-line) (dimensionless); conditions: 298.15 K; 101 kPa; Liquid; Standard Abbe refractometry

[Na+].c1ccc([B-](c2ccccc2)(c2ccccc2)c2ccccc2)cc1 [sodium tetraphenylboron] + C[N+](=O)[O-]
Conditions | molar conductivity [S·m2/mol] | refractive index
[1], c1 = 0.001163 | 0.008583 | –
[1], c1 = 0.002132 | 0.008413 | –
[1], c1 = 0.002952 | 0.008296 | –
[1], c1 = 0.003655 | 0.008195 | –
[1], c1 = 0.004797 | 0.008057 | –
[1], c1 = 0.005686 | 0.007972 | –
[1], c1 = 0.006397 | 0.007909 | –
[1], c1 = 0.006701 | 0.007878 | –
[1], c1 = 0.007231 | 0.007825 | –
[1], c1 = 0.007676 | 0.007789 | –
[1], c1 = 0.008055 | 0.00776 | –
[1], c1 = 0.008382 | 0.007739 | –
[2], c1 = 0.0044 | – | 1.3803
[2], c1 = 0.0178 | – | 1.3811
[2], c1 = 0.0313 | – | 1.3819
[2], c1 = 0.0449 | – | 1.3826
[2], c1 = 0.0586 | – | 1.3837

C[N+](=O)[O-] [nitromethane] + [Na+].c1ccc([B-](c2ccccc2)(c2ccccc2)c2ccccc2)cc1
Conditions | refractive index
[2], c2 = 0 | 1.3799

O=[N+]([O-])c1ccccc1 [nitrobenzene] + [Na+].c1ccc([B-](c2ccccc2)(c2ccccc2)c2ccccc2)cc1
Conditions | refractive index
[2], c2 = 0 | 1.5493

O=[N+]([O-])c1ccccc1 [nitrobenzene] + C[N+](=O)[O-]
w2 = 0
Conditions | mass density [kg/m3] | refractive index | viscosity [mPa·s]
[3] | 1197.7 | – | 1.809
[4] | – | 1.5493 | –

C[N+](=O)[O-] [nitromethane] + O=[N+]([O-])c1ccccc1
Conditions | mass density, [3] [kg/m3] | refractive index, [4] | viscosity, [3] [mPa·s]
w1 = 0.25 | 1178.4 | 1.5051 | 0.918
w1 = 0.5 | 1161.1 | 1.4623 | 0.827
w1 = 0.75 | 1144.7 | 1.4201 | 0.745
w1 = 1 | 1128.8 | 1.3799 | 0.614

[Na+].c1ccc([B-](c2ccccc2)(c2ccccc2)c2ccccc2)cc1 [sodium tetraphenylboron] + O=[N+]([O-])c1ccccc1
Conditions | molar conductivity [S·m2/mol] | refractive index
[1], c1 = 0.001579 | 0.00273 | –
[1], c1 = 0.002187 | 0.002689 | –
[1], c1 = 0.002707 | 0.00266 | –
[1], c1 = 0.003159 | 0.002634 | –
[1], c1 = 0.003902 | 0.002597 | –
[1], c1 = 0.004489 | 0.002572 | –
[1], c1 = 0.004964 | 0.002553 | –
[1], c1 = 0.005966 | 0.002516 | –
[1], c1 = 0.006419 | 0.0025 | –
[1], c1 = 0.006844 | 0.002482 | –
[1], c1 = 0.00722 | 0.002471 | –
[1], c1 = 0.007448 | 0.002463 | –
[2], c1 = 0.0042 | – | 1.5498
[2], c1 = 0.0168 | – | 1.5506
[2], c1 = 0.0295 | – | 1.5511
[2], c1 = 0.0423 | – | 1.5518
[2], c1 = 0.0552 | – | 1.5526

C[N+](=O)[O-] [nitromethane]
Conditions | mass density [kg/m3] | refractive index | viscosity [mPa·s]
[5] | 1128.8 | – | 0.614
[6] | – | 1.3799 | –

O=[N+]([O-])c1ccccc1 [nitrobenzene]
Conditions | mass density [kg/m3] | refractive index | viscosity [mPa·s]
[5] | 1197.7 | – | 1.809
[6] | – | 1.5493 | –
